One may read the IC50 as the concentration that gives 50% inhibition. Low values mean greater potency, high ones weaker potency.

Each structure is given as a SMILES string.

The experiment deals with T1, CKL4 (Arabidopsis thaliana, UniProt Q8LPI7).
T1 sequence (Q8LPI7 1-414): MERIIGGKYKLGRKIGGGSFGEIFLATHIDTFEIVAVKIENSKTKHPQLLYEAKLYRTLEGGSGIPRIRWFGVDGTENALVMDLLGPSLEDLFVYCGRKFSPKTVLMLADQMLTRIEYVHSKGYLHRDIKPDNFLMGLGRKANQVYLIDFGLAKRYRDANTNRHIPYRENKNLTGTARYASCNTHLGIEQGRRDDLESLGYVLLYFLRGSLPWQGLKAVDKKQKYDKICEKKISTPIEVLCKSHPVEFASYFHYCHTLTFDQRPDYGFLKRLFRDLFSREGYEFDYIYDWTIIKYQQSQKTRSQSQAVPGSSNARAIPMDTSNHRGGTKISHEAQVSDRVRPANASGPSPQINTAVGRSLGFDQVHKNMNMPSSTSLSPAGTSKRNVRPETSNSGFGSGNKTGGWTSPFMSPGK
Briefly: in vitro kinase assay with isotope-labeled ATP. The class given is biochemical.

Take `O=C1NCCc2[nH]c(-c3ccncc3)cc21` [PHA767491]: the half-inhibitory concentration (IC50) is roughly 5 µM.

The record behind these values is paper PMC6561244 (Proceedings of the National Academy of Sciences of the …, 2019).
